Reference: patent publication US12006311B2, “Compounds for use in preventing or treating cancer” (FUNDACIÓ HOSPITAL UNIVERSITARI VALL D'HEBRON—INSTITUT DE …, priority 2018, dated 2024)

Columns and labels:
[1] = tested on: rhabdomyosarcoma cell line RD; test: cell growth test based on Methyl violet staining, RD; settings: RD cells; for anti-proliferative activity (cell growth in percentage with respect to the vehicle control): 10 microM, 5 days of incubation, compared with Vismodegib (FIG. 3)
Procedure: (§1) FIG. 3 represents the effects (in percentage with respect to the vehicle control DMSO) of five compounds according to formula (I) (IUCT-0460, IUCT-0462, IUCT-0463, IUCT-0467, IUCT-0469) and the reference compound Vismodegib on cell growth of RD rhabdomyosarcoma cells after 5 day incubation (mean+/−SD). All compounds were used at a concentration of 10 microM. Statistical analysis was performed using ANOVA. As statistical differences were observed (p=0), the pairwise comparison against the vehicle control was made using the Tukey test. Notation: ***=statistically-significant difference with a p-value<0.001, **=p-value<0.01 and *=p-value<0.05.
(§2) The measurements were taken using an in vitro test to measure cell growth based on Methyl violet staining after 5 days of incubation with the aforementioned drugs or control vehicle (DMSO). The procedure was carried out in a 96-well plate and cells were fixed for 30 minutes with 4% paraformaldehyde (PFA) at room temperature. After 3 washes with phosphate-buffered saline (PBS), cells were stained for 30 minutes at room temperature with Methyl violet (dilution 1/25 of a stock solution made with 1.5% w/v in PBS). After 5 washes, and the addition of acetic acid (15% in water), plates were read in a spectrophotometer at 590 nm. All conditions were tested in 8 independent wells and results expressed as a mean of all replicates (FIG. 3).
Additional measurements using the same procedure were made specifically for the compound IUCT-0463 to obtain a dose-response curve from 1 to 50 μM in the cell line RD.

[2] = tested on: rhabdomyosarcoma cell line RH4; test: cell growth test based on Methyl violet staining, RH4; settings: for anti-proliferative activity (cell growth in percentage with respect to vehicle-treated cells): 10 microM, 5 days of incubation, compared with Vismodegib (FIG. 1)
Procedure: as §1, with “FIG. 1” for “FIG. 3”, “effects in” for “effects (in”, “to vehicle-treated cells (DMSO)” for “to the vehicle control DMSO)”, “of RH4” for “of RD”
as §2, with “1).” for “3).”
Additional measurements using the same procedure were made specifically for the compound IUCT-0463 to obtain a dose-response curve from 1 to 50 μM in the cell line RH4.

[3] = tested on: panel of cancer cell lines (RD, RH4, RH30, SKNBE2, SKNAS, U373MG, SKES1, TC71, PC3, HeLa, A549, MDA-MB231, HCT116); test: cell growth test based on Methyl violet staining, panel of cancer cell lines; settings: panel of 13 cancer cell lines, 10 microM, 5 day incubation (FIG. 5)
Procedure: The cell lines analyzed are as follows: RD, RH4 and RH30 (rhabdomyosarcoma, RMS); SKNBE2 and SKNAS (neuroblastoma, NBL); U373MG (glioblastoma, GBL); SKES1 and TC71 (Ewing's sarcoma, EWING); PC3 (prostate cancer, PC); HeLa (epitheloid cervix carcinoma, ECC); A549 (lung cancer, LC); MDA-MB231 (breast cancer, BC) and HCT116 (colorectal cancer, CC). Statistical analysis was performed using ANOVA. As statistical differences were observed (p=0), the pairwise comparison against the vehicle control was made using the Tukey test. Notation: ***=statistically-significant difference with a p-value<0.001, **=p-value<0.01 and *=p-value<0.05.
With the compound showing a better cell growth reduction (IUCT-0463), additional tests were performed with the aim of studying the possible application of this family of compounds to other cancers. The procedure was carried out in a 96-well plate and cells were fixed for 30 minutes with 4% paraformaldehyde (PFA) at room temperature. After 3 washes with phosphate-buffered saline (PBS), cells were stained for 30 minutes at room temperature with Methyl violet (dilution 1/25 of a stock solution made with 1.5% w/v in PBS). After 5 washes, and the addition of acetic acid (15% in water), plates were read in a spectrophotometer at 590 nm.

| SMILES | anti-proliferative activity (cell growth in percentage with respect to the vehicle control) [1] | anti-proliferative activity (cell growth in percentage with respect to vehicle-treated cells) [2] | cell proliferation (cell growth in percentage with respect to the vehicle control) [3] | anti-tumor activity, dose-response curve ([1]; dose-response curve from 1 to 50 μM, compared with Vismodegib (FIG. 4)) | anti-tumor activity, dose-response curve ([2]; RH4 cells, dose-response curve from 1 to 50 μM, compared with Vismodegib (FIG. 2)) |
| --- | --- | --- | --- | --- | --- |
| COc1ccccc1-c1ccc(N2CCCC(NS(=O)(=O)c3cc(Cl)c(Cl)s3)C2=O)c(F)c1 (stereo not shown) [IUCT-0460, 4,5-Dichloro-N-(1-(3-fluoro-2′-methoxy-[1,1′-biphenyl]-4-yl)-2-oxopiperidin-3-yl)thiophene-2-sulfonamide] | better anti-proliferative activity than the reference compound Vismodegib | better anti-proliferative activity than the reference compound Vismodegib |  |  |  |
| COc1ccccc1-c1ccc(N2CCCC(NS(=O)(=O)c3ccc4c(c3)OCO4)C2=O)c(F)c1 (stereo not shown) [IUCT-0462, N-(1-(3-fluoro-2′-methoxy-[1,1′-biphenyl]-4-yl)-2-oxopiperidin-3-yl)benzo[d][1,3]dioxole-5-sulfonamide] | better anti-proliferative activity than the reference compound Vismodegib | better anti-proliferative activity than the reference compound Vismodegib |  |  |  |
| COc1ccccc1-c1ccc(N2CCCC(NS(=O)(=O)c3ccc(-c4ccccn4)s3)C2=O)c(F)c1 (stereo not shown) [IUCT-0463, N-(1-(3-fluoro-2′-methoxy-[1,1′-biphenyl]-4-yl)-2-oxopiperidin-3-yl)-5-(pyridin-2-yl)thiophene-2-sulfonamide] | better anti-proliferative activity than the reference compound Vismodegib | better anti-proliferative activity than the reference compound Vismodegib | remarkable rediction of cell proliferation in the majority of the cell lines analized | clear improvement of the anti-tumor activity when compared to the reference compound Vismodegib | clear improvement of the anti-tumor activity when compared to the reference compound Vismodegib |
| COc1ccccc1-c1ccc(N2CCCC(N(CC(=O)N3CCOCC3)S(=O)(=O)c3ccc4c(c3)OCO4)C2=O)c(F)c1 (stereo not shown) [IUCT-0467, N-(1-(3-fluoro-2′-methoxy-[1,1′-biphenyl]-4-yl)-2-oxopiperidin-3-yl)-N-(2-morpholino-2-oxoethyl)benzo[d][1,3]dioxole-5-sulfonamide] | better anti-proliferative activity than the reference compound Vismodegib | better anti-proliferative activity than the reference compound Vismodegib |  |  |  |
| CCOC(=O)CN(C1CCCN(c2ccc(-c3ccccc3OC)cc2F)C1=O)S(=O)(=O)c1ccc(-c2ccccn2)s1 (stereo not shown) [IUCT-0469, Ethyl N-(1-(3-fluoro-2′-methoxy-[1,1′-biphenyl]-4-yl)-2-oxopiperidin-3-yl)-N-((5-(pyridin-2-yl)thiophen-2-yl)sulfonyl)glycinate] | better anti-proliferative activity than the reference compound Vismodegib | better anti-proliferative activity than the reference compound Vismodegib |  |  |  |
